# Source: patent US7135497B1, “Treating neural conditions resulting from spinal cord contusions and other causes” (New York Medical College, priority 2000, dated 2006)
# Assays:
# [1] = tested on: spinal cord contused rats; test: Locomotor recovery (BBB scale) after weight-drop spinal cord contusion at T10; format: in vivo, rat
# Protocol: (§1) Adult female Wistar rats (˜245 g) were obtained from Charles River Breeding Laboratories and housed in a temperature-regulated (23° C.) animal facility. The spinal cords were contused with a weight drop apparatus similar to the NYU impactor (See also Basso, D. M., M. S. Beattie, and I. C. Breslmahan, 1996, Graded histological and locomotor outcomes after spinal cord contusion using the NYU weight-drop device versus transection, Exp. Neurol. 139:244–256, incorporated by reference) at the level of T10. Prior to surgery, the rats were anesthetized with an injection of pentobarbital sodium (60 mg/kg ip) and laminectomy was performed aseptically at T9–T10 to expose the spinal cord. The spinous processes at T8 and T11 were fixed with clamps to prevent movement during contusion. Body temperature was maintained at 37° C. during the period of anesthesia with a temperature-controlled heating pad and rectal thermometer. Graded injuries were produced in groups of rats by dropping a 10 g rod with a tip diameter of 2.5 mm from heights of either 6.25, 12.5, 25 or 50 mm as in the experiments of Basso identified above. Following contusion, each incision was closed with woundclips. An additional four groups of identically contused rats received clenbuterol received (from Chinoin, Mexico City) that was administered by adding it to the drinking water at a dose of 9 mg/L. This concentration delivers clenbuterol at a rate of 1.6 mg/kg body wt./day. The animals had access to water and food in their cages immediately after recovery from surgery and throughout the experiment. Water consumption is not believed to be affected by the addition of clenbuterol. Oral dosing is particularly effective over prolonged periods because clenbuterol readily enters the circulation via the gut, has high receptor affinity and a relatively long half-life. In all, 8 treatment groups (Table I) were examined. […]
# Recovery of locomotor function was determined with BBB scale as previously described. […] For the three days following contusion and at one week intervals thereafter for a total of six weeks, each rat was scored for locomotor function according to the BBB scale. […] For several rats in treatment groups receiving 50 mm weight drops, treatment conditions became known and were scored by one observer. […]
# To confirm that salbutamol, a β2-adrenoceptor agonist, can enhance recovery of locomotor function following spinal cord injury. Groups of untreated and salbutamol-treated rats were evaluated with the 21 point Basso, Beattie and Bresnahan (BBB) scale (FIG. 9) following spinal cord contusion with a weight-drop device (10 g, 25 mm drop), Salbutamol was administered via subcutaneously implanted osmotic minipumps (Alzet) that delivered 1 mg/kg body weight/day during the 28 day recovery period. […]
# [2] = tested on: spinal cord contused rats; test: Spinal cord histomorphometry: % spared tissue at the contusion center; format: in vivo, rat; conditions: 6 weeks, 9 mg/L in drinking water
# Protocol: as §1, with “examined. All of the procedures involving vertebrate animals were approved by the Institutional Animal Care and Use Committee of New York Medical College.” for “examined.”
# [3] = tested on: motor neuron degeneration (Mnd) mice; test: Forelimb and hindlimb grip strength in Mnd and WT mice; format: in vivo, mouse; conditions: 9 mg/L in drinking water until 37 weeks of age
# Protocol: (§2) Forelimb and hindlimb grip strength was measured in groups of Mnd and wild type (WT) mice that were either treated with clenbuterol in the drinking H2O (9 mg/L) until 37 weeks of age or were untreated. Forelimb and hindlimb grip strength was reduced 44–66% in Mnd compared to WT mice (FIG. 6). Clenbuterol caused relative increases in forelimb grip strength that were greater in Mnd (75%) compared to WT (20%, P<0.05, t test) mice. […] These effects of genotype and clenbuterol treatment were paralleled by similar changes in muscle mass. Thus the hindlimb soleus and extensor digitorum longus muscles were reduced 27–32% in Mnd compared to WT mice (FIG. 7). Clenbuterol caused relative increases of 46% and 29% in soleus weight in Mnd and Wt mice, respectively.
# [4] = tested on: motor neuron degeneration (Mnd) mice; test: Hindlimb muscle weight in Mnd and WT mice; format: in vivo, mouse; conditions: 9 mg/L in drinking water
# Protocol: as §2
# [5] = tested on: motor neuron degeneration (Mnd) mice; test: Behavioral tests of walking and hindlimb splaying (Messer and Flaherty), number of abnormal trials; format: in vivo, mouse; conditions: of 50 trials per week, from 31 to 37 weeks of age, clenbuterol-treated n=5, P<0.01 versus untreated
# Protocol: Behavioral tests developed by Messer and Flaherty in their original description of the Mnd mice were also performed. As described in their publication (J. Neurogenetics 3:345–355, 1986), incorporated by reference, five tests of different aspects of walking and hindlimb splaying are run each week with 10 trials for each test for a total of 50 trials. The mean number of abnormal trials occurring in clenbuterol-treated (n=5) and untreated (n=7) Mnd mice were determined until the mice were 37 weeks of age at the end of the experiment (FIG. 8). Beginning at 31 weeks of age, there is a marked worsening of behavioral scores. […] The frequency of abnormal motoneurons in each mouse was highly correlated with locomotor scores. Clenbuterol reduced the frequency of abnormal motoneurons to 8.3±0.7% (P<0.015) indicating a neurotrophic effect of β2-agonist treatment.
# [6] = tested on: motor neuron degeneration (Mnd) mice; test: Motoneuron counts and abnormal eccentric nuclei in the lumbar spinal cord; format: in vivo, mouse
# [7] = tested on: cultured hippocampal neurons; conditions: in vitro; the NGF protected cultured hippocampal neurons from glutamate excitotoxicity; cited from earlier work
# brain ischemia = conditions: in vivo; cited from earlier work
# interleukin-6 secretion = conditions: cited from earlier work
# [8] = in vivo; cited from earlier work
compound,measurement,setting,value
CC(C)(C)NCC(O)c1cc(Cl)c(N)c(Cl)c1 (stereo not shown) [clenbuterol],improvement in final BBB score due to clenbuterol,"[1]; 25 mm weight drop, versus untreated, 6 weeks",9.3 levels
same,increase in BBB score,"[1]; 50 mm weight drop, fourth, fifth and sixth weeks, versus untreated",5.1–5.8 levels
same,mean of the final BBB scores,"[1]; mean ±SE over the four clenbuterol-treated groups (6.25-50 mm weight drops), 6 weeks, 9 mg/L in drinking water, untreated 8.0±2.9, P<0.05",13.2±1.5
same,sparing of spinal cord tissue accounted for by treatment,[2]; 12.5 mm weight drop,23%
same,sparing of spinal cord tissue accounted for by treatment,[2]; 25 mm weight drop,33%
same,sparing of spinal cord tissue accounted for by treatment,[2]; 50 mm weight drop,34%
same,increase in hindlimb grip strength,[3]; Mnd mice,29%
same,relative increase in forelimb grip strength,[3]; Mnd mice,75%
same,effect on hindlimb strength,[3]; WT mice,did not significantly affect
same,relative increase in forelimb grip strength,[3]; WT mice,20%
same,increase in extensor digitorum longus muscle weight,[4]; Mnd mice,21%
same,relative increase in soleus weight,[4]; Mnd mice,46%
same,relative increase in soleus weight,[4]; Wt mice,29%
same,mean number of abnormal trials,[5],6.3±1.6
same,motoneuron counts in the lumbar spinal cord,[6],not significantly reduced in Mnd mice or affected by clenbuterol
same,frequency of abnormal motoneurons (abnormal eccentric nuclei),"[6]; clenbuterol-treated, untreated Mnd 12.6±0.9%, WT 2.3±0.2%, P<0.015",8.3±0.7%
same,release of NGF,[7],caused the release of NGF
same,effect on hippocampal neurons following ischemia,brain ischemia,neuroprotective effects
same,infarct volume due to brain ischemia,brain ischemia,reduced infarct volume
same,secretion of IL-6,interleukin-6 secretion,greatly increases secretion of IL-6
same,blood-brain barrier passage,[8],crosses the blood-brain barrier
CC(C)(C)NCC(O)c1ccc(O)c(CO)c1 (stereo not shown) [salbutamol],recovery of locomotor function (BBB scale),"[1]; 10 g, 25 mm drop, 1 mg/kg body weight/day by subcutaneous osmotic minipump, 28 days, versus untreated control, P<0.05",significantly greater
